In patent publication US8901312B2, “Cyclic compound, method for producing cyclic compound, and method for modifying biological molecule” (JNC Corporation, priority 2010, dated 2014):
Read-outs that look alike come from different tables or passages of the source.

What was measured:
[1] = system: azido-glycoconjugates on the surface of HEK293 cells; experiment: Fluorescence labeling of azido-glycoconjugates on the surface of living cells; type: cell-based
[2] = system: azido-HaloTag protein (GST-HaloTag protein on GSH-Sepharose resin); experiment: Fluorescence labeling of azido-HaloTag protein by SPDC reaction, SDS-PAGE fluorescence imaging; type: biochemical
[3] = system: HEK293 cells; experiment: Cytotoxicity assay in living cells; type: cell-based; settings: 0 to 80 μM, incubation overnight
Method: Finally, cytotoxicity assay of diyne 3 was performed in living cells. HEK293 cells were incubated and diyne 3 was added to the cells in a concentration of 0 to 80 μM, followed by incubation overnight. Morphological images of the cells after incubation, which were taken under a phase-contrast microscope and visualized with Adobe Photoshop CS2, are shown in FIG. 10.

Row | Compound | fluorescence labeling of cell surface azido-glycoconjugates (result in words) [1] | fluorescence labeling efficiency of azido-HaloTag protein ([2]; sequential SPDC reaction: diyne 3, wash, then TESRA-PEO3-azide (9)) | total labeling efficiency of TESRA-labeled HaloTag protein ([2]; simultaneous SPDC reaction with TESRA-PEO3-azide (9), relative to TESRA-HaloTag ligand (10) labeling taken as almost 100%) | reaction time at which labeling efficiency became maximum ([1]; 40 μM diyne 3, HEK293 cells with azido-glycoconjugates, 0 to 48 minutes) | fluorescence labeling of cell surface azido-glycoconjugates (result in words) ([1]; HEK293 cells cultured with Ac4ManNAz) | cytotoxicity (cell morphology, phase-contrast microscope) [3]
1 | O=C(NCCNC(=S)Nc1ccc2c(c1)C(=O)OC21c2ccc(O)cc2Oc2cc(O)ccc21)OC1Cc2ccccc2C#Cc2ccccc21 (stereo not drawn) [monoyne 22, 1-[2-{(11,12-didehydro-5,6-dihydrodibenzo[a,e]cycloocten-5-yl)oxycarbonylamino}ethyl]-3-(5-fluoresceinyl)thiourea] | substantial difference in fluorescence labeling efficiency between the SPDC reaction and the single click reaction was hardly observed |  |  |  |  | 
2 | C1#Cc2ccccc2C#Cc2ccccc21 [diyne 3, sym-dibenzo-1,5-cyclooctadiene-3,7-diyne] |  | approximately 45% | ~40% | approximately 20 minutes | a reliable fluorescence signal was detected | did not show cytotoxicity
